The record followed here is patent US20090069180A1 (priority 2006, published 2009).

One data set concerns Pyricularia oryzae. It is filed as cell-based. The settings on record: 125 ppm, microtiter plate, absorption at 405 nm on day 7 after inoculation, relative to active compound-free control.

As for `CC1CCCN1c1nc(C#N)nc(Cl)c1/C(Br)=C(\Br)[Si](C)(C)C` (stereo not drawn) [C-1, 4-Chloro-2-cyano-5-((E)-1,2-dibromo-2-trimethylsilylvinyl)-6-(2-methylpyrrolidin-1-yl)-pyrimidine], the melting point was 166 to 168 °C. Also, in the data set with Pyricularia oryzae, the relative pathogen growth is listed as 0%.
`CONC(=N)c1nc(Cl)c(/C(Br)=C(/Cl)Br)c(N2CCCC2C)n1` (stereo not drawn) [C-4, N-Methoxy-4-chlor-5-((E)-2-chloro-1,2-dibromovinyl)-6-(2-methyl-pyrrolidin-1-yl)-2-pyrimidinecarboximidamide]: the relative pathogen growth in the data set on Pyricularia oryzae is recorded as 0%.
